Experimental data reported in ChEMBL document CHEMBL5647694, “Novel orally bioavailable EZH1/2 dual inhibitors with greater antitumor efficacy than an EZH2 selective inhibitor” (Cancer Sci, 2017).

Experiments:
BT-20 = test: Antitumor activity against human BT-20 cells assessed as cell growth inhibition treated for 10 to 15 days; format: functional; conditions: time 10-15 day
[1] = target: Histone-lysine N-methyltransferase, H3 lysine-36 specific (Homo sapiens, UniProt Q96L73); test: Inhibition of human NSD1 using Nucleosomes and [3H]SAM as substrate incubated for 30 mins to 1 hr by HotSpot kinase assay
[2] = target: Protein arginine N-methyltransferase 6 (Homo sapiens, UniProt Q96LA8); test: Inhibition of human PRMT6 using Histone H3 and [3H]SAM as substrate incubated for 30 mins to 1 hr by HotSpot kinase assay
Chain of Protein arginine N-methyltransferase 6 (Q96LA8 whole entry, the tested form may be a part): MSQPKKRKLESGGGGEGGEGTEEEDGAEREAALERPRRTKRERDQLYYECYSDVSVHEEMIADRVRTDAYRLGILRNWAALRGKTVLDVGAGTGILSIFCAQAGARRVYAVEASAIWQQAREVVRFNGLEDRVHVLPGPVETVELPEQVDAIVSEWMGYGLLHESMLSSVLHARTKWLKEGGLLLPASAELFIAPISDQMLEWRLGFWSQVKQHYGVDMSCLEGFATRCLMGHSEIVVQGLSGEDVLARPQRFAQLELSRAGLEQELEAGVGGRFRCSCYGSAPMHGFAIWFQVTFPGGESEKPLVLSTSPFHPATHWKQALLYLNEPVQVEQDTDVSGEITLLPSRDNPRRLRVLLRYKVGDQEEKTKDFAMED

[3] = target: Non-receptor tyrosine-protein kinase TYK2 (Homo sapiens) (UniProt P29597); test: Inhibition of N-terminal GST-tagged human TYK2 catalytic domain (871 to 1187 residues) expressed in baculovirus-infected Sf21 cells using Srctide as substrate at 1 uM in presence of ATP by Mobility shift assay
Chain of Non-receptor tyrosine-protein kinase TYK2 (Homo sapiens) (P29597 whole entry, the tested form may be a part): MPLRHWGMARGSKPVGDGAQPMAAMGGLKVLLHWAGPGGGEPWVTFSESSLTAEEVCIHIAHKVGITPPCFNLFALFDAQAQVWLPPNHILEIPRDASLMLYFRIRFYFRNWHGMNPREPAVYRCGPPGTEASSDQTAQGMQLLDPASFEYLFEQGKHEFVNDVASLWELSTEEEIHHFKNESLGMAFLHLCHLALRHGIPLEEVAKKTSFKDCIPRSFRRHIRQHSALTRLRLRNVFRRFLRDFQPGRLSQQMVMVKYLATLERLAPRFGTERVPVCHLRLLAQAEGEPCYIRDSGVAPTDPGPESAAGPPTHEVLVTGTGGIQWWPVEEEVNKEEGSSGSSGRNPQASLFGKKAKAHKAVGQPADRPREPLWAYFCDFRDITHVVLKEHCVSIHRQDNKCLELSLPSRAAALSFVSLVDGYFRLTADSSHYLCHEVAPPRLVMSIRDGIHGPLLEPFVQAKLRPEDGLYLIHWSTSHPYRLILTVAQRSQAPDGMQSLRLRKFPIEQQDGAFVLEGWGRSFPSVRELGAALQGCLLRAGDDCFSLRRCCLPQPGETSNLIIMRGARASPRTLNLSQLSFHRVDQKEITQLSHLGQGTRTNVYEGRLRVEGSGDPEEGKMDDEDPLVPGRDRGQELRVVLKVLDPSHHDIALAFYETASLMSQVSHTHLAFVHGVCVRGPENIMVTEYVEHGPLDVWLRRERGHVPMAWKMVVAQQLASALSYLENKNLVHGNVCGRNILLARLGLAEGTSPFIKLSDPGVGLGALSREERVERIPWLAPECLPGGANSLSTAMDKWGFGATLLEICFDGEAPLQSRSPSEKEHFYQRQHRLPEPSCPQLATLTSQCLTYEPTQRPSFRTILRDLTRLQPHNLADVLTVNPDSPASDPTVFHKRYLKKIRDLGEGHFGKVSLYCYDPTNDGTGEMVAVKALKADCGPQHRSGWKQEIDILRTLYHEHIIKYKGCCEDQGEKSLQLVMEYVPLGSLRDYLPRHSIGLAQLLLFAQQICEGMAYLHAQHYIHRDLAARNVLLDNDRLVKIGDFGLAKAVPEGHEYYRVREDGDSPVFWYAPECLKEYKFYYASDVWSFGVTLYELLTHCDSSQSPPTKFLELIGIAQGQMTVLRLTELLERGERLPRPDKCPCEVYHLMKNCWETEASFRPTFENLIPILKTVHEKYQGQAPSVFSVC

[4] = target: Eukaryotic elongation factor 2 kinase (Homo sapiens) (UniProt O00418); test: Inhibition of N-terminal GST-fused full length human EEF2K (1 to 725 residues) expressed in Escherichia coli expression system using EEF2Ktide as substrate at 1 uM in presence of ATP by Mobility shift assay
Chain of Eukaryotic elongation factor 2 kinase (Homo sapiens) (O00418 whole entry, the tested form may be a part): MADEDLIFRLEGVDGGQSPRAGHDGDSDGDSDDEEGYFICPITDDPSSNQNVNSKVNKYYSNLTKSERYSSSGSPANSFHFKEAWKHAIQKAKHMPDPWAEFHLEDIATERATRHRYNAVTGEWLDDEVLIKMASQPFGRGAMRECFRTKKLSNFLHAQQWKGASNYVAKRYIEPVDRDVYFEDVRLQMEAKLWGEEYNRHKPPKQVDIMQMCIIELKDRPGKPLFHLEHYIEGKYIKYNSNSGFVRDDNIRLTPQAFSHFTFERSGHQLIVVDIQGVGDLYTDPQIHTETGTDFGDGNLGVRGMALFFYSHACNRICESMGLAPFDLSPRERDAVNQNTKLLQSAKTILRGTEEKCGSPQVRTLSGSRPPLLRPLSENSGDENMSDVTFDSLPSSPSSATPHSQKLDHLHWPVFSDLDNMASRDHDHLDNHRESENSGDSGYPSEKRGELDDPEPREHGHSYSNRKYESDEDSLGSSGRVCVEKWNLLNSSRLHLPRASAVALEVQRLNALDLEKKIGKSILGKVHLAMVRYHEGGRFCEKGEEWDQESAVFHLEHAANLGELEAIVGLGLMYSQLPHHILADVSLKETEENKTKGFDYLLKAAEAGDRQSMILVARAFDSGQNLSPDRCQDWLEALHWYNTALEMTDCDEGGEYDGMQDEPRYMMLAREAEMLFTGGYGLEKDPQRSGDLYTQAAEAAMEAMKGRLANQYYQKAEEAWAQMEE

[5] = target: Serine/threonine-protein kinase 26 (Homo sapiens) (UniProt Q9P289); test: Inhibition of N-terminal GST-fused full length human MST4 (1 to 416 residues) expressed in baculovirus expression system using Moesin-derived peptide as substrate at 1 uM in presence of ATP by Mobility shift assay
Chain of Serine/threonine-protein kinase 26 (Homo sapiens) (Q9P289 2-416 limits assumed): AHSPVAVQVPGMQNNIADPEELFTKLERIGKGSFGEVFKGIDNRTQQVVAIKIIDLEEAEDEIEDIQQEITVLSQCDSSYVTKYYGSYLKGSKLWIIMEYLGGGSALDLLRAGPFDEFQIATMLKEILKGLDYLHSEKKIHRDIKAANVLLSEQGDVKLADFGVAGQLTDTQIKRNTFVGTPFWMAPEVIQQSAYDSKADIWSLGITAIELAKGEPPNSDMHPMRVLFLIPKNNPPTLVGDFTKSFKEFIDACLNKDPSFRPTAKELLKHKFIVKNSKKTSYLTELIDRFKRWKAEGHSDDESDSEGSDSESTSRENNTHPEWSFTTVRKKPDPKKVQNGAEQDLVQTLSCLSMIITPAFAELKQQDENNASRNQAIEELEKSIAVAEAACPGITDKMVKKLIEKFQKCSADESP

SUP-T1 = test: Antitumor activity against human SUP-T1 cells assessed as cell growth inhibition treated for 10 to 15 days; format: functional; conditions: time 10-15 day
MOLM-14 = test: Antitumor activity against human MOLM-14 cells assessed as cell growth inhibition treated for 10 to 15 days; format: functional; conditions: time 10-15 day
Kasumi 1 = test: Antitumor activity against human Kasumi 1 cells assessed as cell growth inhibition treated for 10 to 15 days; format: functional; conditions: time 10-15 day
[6] = Antitumor activity against human Kasumi-3 cells assessed as cell growth inhibition treated for 10 to 15 days; format: functional; conditions: time 10-15 day
KCL-22 = test: Antitumor activity against human KCL-22 cells assessed as cell growth inhibition treated for 10 to 15 days; format: functional; conditions: time 10-15 day
[7] = Antitumor activity against human EB1 cells assessed as cell growth inhibition treated for 10 to 15 days; format: functional; conditions: time 10-15 day
SUD4 = test: Antitumor activity against human SU-DHL-4 cells assessed as cell growth inhibition treated for 10 to 15 days; format: functional; conditions: time 10-15 day
OCI-Ly7 = test: Antitumor activity against human OCILY7 cells assessed as cell growth inhibition treated for 10 to 15 days; format: functional; conditions: time 10-15 day
OCI-LY19 = test: Antitumor activity against human OCILY19 cells assessed as cell growth inhibition treated for 10 to 15 days; format: functional; conditions: time 10-15 day
RL = test: Antitumor activity against human RL cells assessed as cell growth inhibition treated for 10 to 15 days; format: functional; conditions: time 10-15 day
U-937 = test: Antitumor activity against human U-937 cells assessed as cell growth inhibition treated for 10 to 15 days; format: functional; conditions: time 10-15 day
Rec1 = test: Antitumor activity against human REC1 cells assessed as cell growth inhibition treated for 10 to 15 days; format: functional; conditions: time 10-15 day
MDA-MB-415 = test: Antitumor activity against human MDA-MB-415 cells assessed as cell growth inhibition treated for 10 to 15 days; format: functional; conditions: time 10-15 day
MDA-MB-453 = test: Antitumor activity against human MDA-MB-453 cells assessed as cell growth inhibition treated for 10 to 15 days; format: functional; conditions: time 10-15 day
MDA-MB-361 = test: Antitumor activity against human MDA-MB-361 cells assessed as cell growth inhibition treated for 10 to 15 days; format: functional; conditions: time 10-15 day
A-427 = test: Antitumor activity against human A-427 cells assessed as cell growth inhibition treated for 10 to 15 days; format: functional; conditions: time 10-15 day
NCI-H1694 = test: Antitumor activity against human NCI-H1694 cells assessed as cell growth inhibition treated for 10 to 15 days; format: functional; conditions: time 10-15 day
A2780 = test: Antitumor activity against human A2780 cells assessed as cell growth inhibition treated for 10 to 15 days; format: functional; conditions: time 10-15 day
KURAMOCHI = test: Antitumor activity against human KURAMOCHI cells assessed as cell growth inhibition treated for 10 to 15 days; format: functional; conditions: time 10-15 day
RMG-I = test: Antitumor activity against human RMG-I cells assessed as cell growth inhibition treated for 10 to 15 days; format: functional; conditions: time 10-15 day
SK-OV-3 = test: Antitumor activity against human SK-OV-3 cells assessed as cell growth inhibition treated for 10 to 15 days; format: functional; conditions: time 10-15 day
LNCaP-Clone-FGC = test: Antitumor activity against human LNCaP clone FGC cells assessed as cell growth inhibition treated for 10 to 15 days; format: functional; conditions: time 10-15 day
CWR22R = test: Antitumor activity against human 22Rv1 cells assessed as cell growth inhibition treated for 10 to 15 days; format: functional; conditions: time 10-15 day
HT1197 = test: Antitumor activity against human HT1197 cells assessed as cell growth inhibition treated for 10 to 15 days; format: functional; conditions: time 10-15 day
A204 = test: Antitumor activity against human A204 cells assessed as cell growth inhibition treated for 10 to 15 days; format: functional; conditions: time 10-15 day
[8] = target: Interleukin-1 receptor-associated kinase 1 (Homo sapiens) (UniProt P51617); test: Inhibition of N-terminal GST-fused truncated human IRAK1 (194 to 712 residues) expressed in baculovirus expression system using SRPKtide as substrate at 1 uM in presence of ATP by IMAP assay
Chain of Interleukin-1 receptor-associated kinase 1 (Homo sapiens) (P51617 whole entry, looked up, the tested form may be a part): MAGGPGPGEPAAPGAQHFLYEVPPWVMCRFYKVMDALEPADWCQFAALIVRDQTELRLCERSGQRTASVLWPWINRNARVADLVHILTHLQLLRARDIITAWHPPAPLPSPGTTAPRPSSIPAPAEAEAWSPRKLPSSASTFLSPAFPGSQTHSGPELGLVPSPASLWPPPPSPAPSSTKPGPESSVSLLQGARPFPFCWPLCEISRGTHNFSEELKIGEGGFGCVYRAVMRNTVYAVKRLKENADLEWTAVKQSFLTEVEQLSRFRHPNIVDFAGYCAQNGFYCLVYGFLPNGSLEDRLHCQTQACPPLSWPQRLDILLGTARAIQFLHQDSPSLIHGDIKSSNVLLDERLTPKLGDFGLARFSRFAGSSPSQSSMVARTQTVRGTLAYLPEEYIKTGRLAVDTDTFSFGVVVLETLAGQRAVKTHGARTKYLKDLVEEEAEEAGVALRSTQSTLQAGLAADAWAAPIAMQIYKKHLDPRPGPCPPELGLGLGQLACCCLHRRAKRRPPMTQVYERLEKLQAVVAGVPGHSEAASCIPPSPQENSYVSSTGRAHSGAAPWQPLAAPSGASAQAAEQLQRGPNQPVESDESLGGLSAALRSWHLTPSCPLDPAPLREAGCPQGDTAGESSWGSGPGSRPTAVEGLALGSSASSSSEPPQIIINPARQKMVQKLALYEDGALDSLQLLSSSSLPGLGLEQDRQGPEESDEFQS

[9] = target: Protein kinase C iota type (Homo sapiens) (UniProt P41743); test: Inhibition of N-terminal GST-fused human full length PKC-iota (1 to 587 residues ) expressed in baculovirus expression system using PKC peptide as substrate at 1 uM in presence of ATP by Mobility shift assay
Chain of Protein kinase C iota type (Homo sapiens) (P41743 whole entry, the tested form may be a part): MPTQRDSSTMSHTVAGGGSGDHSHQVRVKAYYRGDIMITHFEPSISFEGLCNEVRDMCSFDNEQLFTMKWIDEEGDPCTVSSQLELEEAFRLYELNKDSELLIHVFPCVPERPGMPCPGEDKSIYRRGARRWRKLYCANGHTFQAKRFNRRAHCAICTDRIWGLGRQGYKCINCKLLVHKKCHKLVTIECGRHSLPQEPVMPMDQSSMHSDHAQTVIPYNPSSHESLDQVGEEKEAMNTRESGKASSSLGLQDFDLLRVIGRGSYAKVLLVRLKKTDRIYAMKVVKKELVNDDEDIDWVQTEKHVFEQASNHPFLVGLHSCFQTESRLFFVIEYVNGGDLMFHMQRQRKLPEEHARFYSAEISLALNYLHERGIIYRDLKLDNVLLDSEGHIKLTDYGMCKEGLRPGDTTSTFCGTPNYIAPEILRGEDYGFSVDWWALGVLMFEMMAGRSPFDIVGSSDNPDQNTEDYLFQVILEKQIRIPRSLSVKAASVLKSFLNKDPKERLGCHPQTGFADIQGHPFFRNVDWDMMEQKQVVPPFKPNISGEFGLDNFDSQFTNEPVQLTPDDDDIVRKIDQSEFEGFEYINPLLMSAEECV

[10] = Toxicity in Crl:CD Sprague-Dawley rat assessed as basophil count in blood at 100 mg/kg, po administered daily for 14 days (reference value: 0.023+/-0.018 10^3/uL); format: organism-based; conditions: in vivo, 336 h, time 14 day
[11] = Toxicity in Crl:CD Sprague-Dawley rat assessed as platelet count in blood at 100 mg/kg, po administered daily for 14 days (reference value: 1160+/-65.1 10^3/uL); format: organism-based; conditions: in vivo, 336 h, time 14 day
[12] = Toxicity in Crl:CD Sprague-Dawley rat assessed as lymphocyte count in blood at 100 mg/kg, po administered daily for 14 days (reference value: 7.37+/-1.6 10^3/uL); format: organism-based; conditions: in vivo, 336 h, time 14 day
[13] = Toxicity in Crl:CD Sprague-Dawley rat assessed as monocyte count in blood at 100 mg/kg, po administered daily for 14 days (reference value: 0.203+/-0.09 10^3/uL); format: organism-based; conditions: in vivo, 336 h, time 14 day
[14] = Toxicity in Crl:CD Sprague-Dawley rat assessed as aspartate aminotransferase level in blood at 100 mg/kg, po administered daily for 14 days (reference value: 72+/-5.03 U/L); format: organism-based; conditions: in vivo, 336 h, time 14 day
[15] = Toxicity in Crl:CD Sprague-Dawley rat assessed as […] dehydrogenase level in blood at 100 mg/kg, po administered daily for 14 days (reference value: 103 +/-16.1 U/L); format: organism-based; conditions: in vivo, 336 h, time 14 day
[16] = Toxicity in Crl:CD Sprague-Dawley rat assessed as albumin level in blood at 100 mg/kg, po administered daily for 14 days (reference value: 3.85+/-0.129 g/dL); format: organism-based; conditions: in vivo, 336 h, time 14 day

For `Cc1cc(C)c(CNC(=O)c2cc(Cl)c3c(c2C)O[C@@](C)([C@H]2CC[C@H](N(C)C)CC2)O3)c(=O)[nH]1` [VALEMETOSTAT], the GI50 (BT-20) was > 1 µM, the IC50 [1] was 100 µM and the IC50 [2] was 100 µM. The inhibition [3] was -8.8%, the inhibition [4] was -0.3% and the inhibition [5] was 0.8%. For the same compound, the GI50 (SUP-T1) was > 1 µM, the GI50 (MOLM-14) was 0.07 µM and the GI50 (Kasumi 1) was 0.07 µM. The GI50 [6] was > 1 µM, the GI50 (KCL-22) was 0.138 µM and the GI50 [7] was 0.0482 µM. The GI50 (SUD4) was 0.0555 µM, the GI50 (OCI-Ly7) was 0.0592 µM and the GI50 (OCI-LY19) was > 1 µM. For the same compound, the GI50 (RL) was > 1 µM, the GI50 (U-937) was > 1 µM and the GI50 (Rec1) was 0.48 µM. It also gave a GI50 (MDA-MB-415) of 0.0247 µM, a GI50 (MDA-MB-453) of 0.124 µM and a GI50 (MDA-MB-361) of 0.109 µM. For the same compound, the GI50 (A-427) was > 1 µM, the GI50 (NCI-H1694) was > 1 µM and the GI50 (A2780) was 0.036 µM. The GI50 (KURAMOCHI) was > 1 µM, the GI50 (RMG-I) was > 1 µM and the GI50 (SK-OV-3) was > 1 µM. The GI50 (LNCaP-Clone-FGC) was 0.00553 µM, the GI50 (CWR22R) was 0.0377 µM and the GI50 (HT1197) was 0.0131 µM. It also gave a GI50 (A204) of 0.0292 µM.
With `Cc1cc(C)c(CNC(=O)c2cc(Br)c3c(c2C)O[C@@](C)([C@H]2CC[C@H](N(C)C)CC2)O3)c(=O)[nH]1` the inhibition [3] was -2.4%, the inhibition [4] was -3% and the inhibition [8] was -4.5%. For the same compound, the inhibition [5] was -0.1%, the inhibition [9] was 22.3% and the Activity [10] was 0.01 10^3 /uL. The Activity [11] was 1120 10^3 /uL, the Activity [12] was 3.67 10^3 /uL and the Activity [13] was 0.105 10^3 /uL. The Activity [14] was 71.8 U/L, the Activity [15] was 137 U/L and the Activity [16] was 3.75 g/dL.
